Laboratory results published in ChEMBL document CHEMBL5357033, “Discovery of Diverse Sesquiterpenoids from Crossiella cryophila through Genome Mining and NMR Tracking” (J Nat Prod, 2024).

What was measured:
Escherichia coli = assay: Antimicrobial activity against Escherichia coli CGMCC 1.3344 assessed as reduction in microbial growth by broth microdilution method; type: functional
Staphylococcus aureus [1] = assay: Antimicrobial activity against methicillin resistant Staphylococcus aureus assessed as reduction in microbial growth by broth microdilution method; type: functional
Klebsiella pneumoniae = assay: Antimicrobial activity against Klebsiella pneumoniae W5 assessed as reduction in microbial growth by broth microdilution method; type: functional
Enterococcus = assay: Antimicrobial activity against Vancomycin-resistant Enterococci assessed as reduction in microbial growth by broth microdilution method; type: functional
Paracidovorax avenae = assay: Antimicrobial activity against Acidovorax avenae ATCC 19307 assessed as reduction in microbial growth by broth microdilution method; type: functional
MCF7 = assay: Anticancer activity against human MCF7 cells assessed as reduction in cell viability at 40 uM measured after 48 hrs by CCK-8 method relative to control; type: functional
HepG2 = assay: Anticancer activity against human HepG2 cells assessed as reduction in cell viability at 40 uM measured after 48 hrs by CCK-8 method relative to control; type: functional
MDA-MB-231 = assay: Anticancer activity against human MDA-MB-231 cells assessed as reduction in cell viability at 40 uM measured after 48 hrs by CCK-8 method relative to control; type: functional
Staphylococcus capitis = assay: Antimicrobial activity against Staphylococcus capitis W7 assessed as reduction in microbial growth by broth microdilution method; type: functional
Pseudomonas syringae = assay: Antimicrobial activity against Pseudomonas syringae ATCC-BAA-2502 assessed as reduction in microbial growth by broth microdilution method; type: functional
Staphylococcus aureus [2] = assay: Antimicrobial activity against Staphylococcus aureus LV-B1 assessed as reduction in microbial growth by broth microdilution method; type: functional
Micrococcus luteus = assay: Antimicrobial activity against Micrococcus luteus ATCC 4685 assessed as reduction in microbial growth by broth microdilution method; type: functional
SW480 = assay: Anticancer activity against human SW480 cells assessed as reduction in cell viability at 40 uM measured after 48 hrs by CCK-8 method relative to control; type: functional
Shigella sonnei = assay: Antimicrobial activity against Shigella sonnei ZD12 assessed as reduction in microbial growth by broth microdilution method; type: functional
RAW264.7 [3] = assay: Antiinflammatory activity in mouse RAW264.7 assessed as reduction in LPS-induced NO production incubated for 24 hrs by Griess method relative to control; type: functional; design: concentration or dose not given beside the values
A549 = assay: Anticancer activity against human A549 cells assessed as reduction in cell viability at 40 uM measured after 48 hrs by CCK-8 method relative to control; type: functional
RAW264.7 [4] = assay: Cytotoxicity against mouse RAW264.7 cells measured after 24hrs by CCK-8 method relative to control; type: toxicity, cell-based; design: concentration or dose not given beside the values; conditions: raw264.7, 24 h
Xanthomonas oryzae = assay: Antimicrobial activity against Xanthomonas oryzae ATCC 35933 assessed as reduction in microbial growth by broth microdilution method; type: functional
Bacillus subtilis = assay: Antimicrobial activity against Bacillus subtilis ATCC 6051 assessed as reduction in microbial growth by broth microdilution method; type: functional

Row | Structure (SMILES) | MIC (Escherichia coli) [µg/mL] | MIC (Staphylococcus aureus [1]) [µg/mL] | MIC (Klebsiella pneumoniae) [µg/mL] | MIC (Enterococcus) [µg/mL] | MIC (Paracidovorax avenae) [µg/mL] | Activity (MCF7) [%] | Activity (HepG2) [%] | Activity (MDA-MB-231) [%] | MIC (Staphylococcus capitis) [µg/mL] | MIC (Pseudomonas syringae) [µg/mL] | MIC (Staphylococcus aureus [2]) [µg/mL] | MIC (Micrococcus luteus) [µg/mL] | Activity (SW480) [%] | MIC (Shigella sonnei) [µg/mL] | Activity (RAW264.7 [3]) [%] | Activity (A549) [%] | Activity (RAW264.7 [4]) [%] | MIC (Xanthomonas oryzae) [µg/mL] | MIC (Bacillus subtilis) [µg/mL]
1 | CC1(C)[C@H]2/C=C(/C=O)CC[C@@H]3O[C@@]3(C)CC[C@@H]21 | > 128 | > 128 | > 128 | > 128 | > 128 | 16.05 | -4.51 | -2.33 | > 128 | > 128 | > 128 | > 128 | -21.6 | > 128 | -2.46 | 2.4 | 81.51 | > 128 | > 128
2 | C/C1=C\CC/C(C=O)=C\[C@H]2[C@H](C[C@H]1O)C2(C)C | > 128 | > 128 | > 128 | > 128 | > 128 | 1.32 | -8.84 | -11.44 | > 128 | > 128 | > 128 | > 128 | -28.68 | > 128 | 1.33 | -2.39 | 89.61 | > 128 | > 128
3 | CC1=C[C@@H]2[C@@H](C(C)C)CC[C@@](C)(O)[C@@H]2C[C@@H]1O | > 128 | > 128 | > 128 | > 128 | > 128 | 6.01 | -1.38 | -7.21 | > 128 | > 128 | > 128 | > 128 | -7.85 | > 128 | -1.33 | 0.28 | 82.75 | > 128 | > 128
4 | C[C@H]1C[C@H](O)[C@@H]2[C@H]3[C@H]1OC(C)(C)[C@@H]3CC[C@@]2(C)O | > 128 | > 128 | > 128 | > 128 | > 128 | 8.24 | -8.63 | 1.66 | > 128 | > 128 | > 128 | > 128 | -5.32 | > 128 | 0.67 | 0.07 | 84.88 | > 128 | > 128
5 | CC1=C[C@@H]2[C@@H](C(C)C)CC[C@@](C)(O)[C@@H]2CC1 | > 128 | > 128 | > 128 | > 128 | > 128 | 18.49 | 4.12 | 32.06 | > 128 | > 128 | > 128 | > 128 | 6.82 | > 128 | -4.95 | 12.06 | 90.3 | > 128 | > 128
6 | CC1(C)[C@H]2[C@@H]1CC[C@@]1(C)[C@H](O)CC[C@](O)(CO)[C@H]21 | > 128 | > 128 | > 128 | > 128 | > 128 | 11.1 | 3.99 | 27.39 | > 128 | > 128 | > 128 | > 128 | 7.24 | > 128 | -3.05 | 0.34 | 81.69 | > 128 | > 128
7 | CC1(C)[C@H]2/C=C(/CO)CC[C@@H]3O[C@@]3(C)CC[C@@H]21 | > 128 | > 128 | > 128 | > 128 | > 128 | 14.53 | -11.68 | 4.47 | > 128 | > 128 | > 128 | > 128 | -7.55 | > 128 | -6.95 | 13 | 8.25 | > 128 | > 128
8 | C[C@H]1CC[C@@H](O)[C@]2(C)CC[C@@H](C(C)(C)O)[C@H](O)[C@@H]12 | > 128 | > 128 | > 128 | > 128 | > 128 | 5.53 | -2.3 | -2.4 | > 128 | > 128 | > 128 | > 128 | 10.33 | > 128 | 3.3 | 0.97 | 88.18 | > 128 | > 128
9 | C/C1=C\CC/C(CO)=C\[C@H]2[C@H](C[C@H]1O)C2(C)C | > 128 | > 128 | > 128 | > 128 | > 128 | 15.37 | 6.04 | 6.53 | > 128 | > 128 | > 128 | > 128 | 46.36 | > 128 | -1.42 | 7.59 | 83.59 | > 128 | > 128
10 | CC1=C[C@@H]2[C@@H](C(C)C)CC[C@@](C)(O)[C@@H]2CC1=O | > 128 | > 128 | > 128 | > 128 | > 128 | 13.45 | -9.79 | 20.55 | > 128 | > 128 | > 128 | > 128 | -22.26 | > 128 | -11.3 | 8.55 | 82.62 | > 128 | > 128
11 | C[C@@H]1C(=O)C[C@@H]2[C@H]3[C@H]1OC(C)(C)[C@H]3CC[C@@]2(C)O | > 128 | > 128 | > 128 | > 128 | > 128 | 9.07 | -1.81 | -3.76 | > 128 | > 128 | > 128 | > 128 | 13.67 | > 128 | -1.87 | 0.67 | 91.87 | > 128 | > 128
12 | CC1=C[C@H]2[C@H](C(C)C)CC[C@@](C)(O)[C@H]2C[C@H]1O | > 128 | > 128 | > 128 | > 128 | > 128 | 12.99 | -5.25 | -8.69 | > 128 | > 128 | > 128 | > 128 | 4.58 | > 128 | -6.33 | 5.64 | 87.41 | > 128 | > 128
13 | C[C@H]1CC[C@@H]2[C@H]3[C@H]1OC(C)(C)[C@@H]3CC[C@@]2(C)O (relative stereo) | > 128 | > 128 | > 128 | > 128 | > 128 | 14.7 | -8.24 | 4.18 | > 128 | > 128 | > 128 | > 128 | -11.92 | > 128 | -7.88 | 12.03 | 94.77 | > 128 | > 128
14 | CN(C)[C@@H]1C(O)=C(C(N)=O)C(=O)[C@@]2(O)C(O)=C3C(=O)c4c(O)cccc4[C@@](C)(O)[C@H]3C[C@@H]12 [TETRACYCLINE] | 2 | 4 | > 128 | 2 | 4 |  |  |  | 4 | > 128 | 0.5 | 2 |  | 8 |  |  |  | 8 | 2
